# Source: patent US20260364080A1, “PYRAZOLO-PYRIMIDINONE COMPOUNDS FOR USE IN METHODS OF INHIBITING WEE1 A KINASE” (Acrivon Therapeutics, Inc., priority 2023, published 2026)
# pEC50, pIC50: −log10 of the molar value. Where two headings read alike, the source gives them in different places.
# Assays:
# [1] = target: T1, Myt1 kinase (recombinant PMYT-1) (Homo sapiens, UniProt Q99640); assay: Myt1 kinase binding assay (LanthaScreen Eu Kinase Binding Assay)
# T1 construct: full length PMYT-1 was expressed by baculovirus in insect cells; purchased Invitrogen A30984; host or cells: insect cells (baculovirus)
# T1 sequence (Q99640 1-499): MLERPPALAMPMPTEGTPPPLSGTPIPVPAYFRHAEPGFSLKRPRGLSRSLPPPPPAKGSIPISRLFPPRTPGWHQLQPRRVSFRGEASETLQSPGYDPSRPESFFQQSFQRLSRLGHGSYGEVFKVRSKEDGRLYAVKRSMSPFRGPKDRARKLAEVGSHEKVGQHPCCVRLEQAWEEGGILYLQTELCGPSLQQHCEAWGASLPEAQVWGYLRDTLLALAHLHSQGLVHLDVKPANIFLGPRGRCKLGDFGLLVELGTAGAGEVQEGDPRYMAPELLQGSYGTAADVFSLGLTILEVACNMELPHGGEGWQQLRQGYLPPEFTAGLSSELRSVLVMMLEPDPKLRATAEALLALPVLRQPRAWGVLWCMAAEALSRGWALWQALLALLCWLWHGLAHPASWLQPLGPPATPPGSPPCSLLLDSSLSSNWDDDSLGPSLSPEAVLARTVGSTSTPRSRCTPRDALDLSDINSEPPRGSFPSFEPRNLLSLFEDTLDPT
# Experimental: (§1) To calculate the emission ratio, the acceptor/tracer emission ([…]) was divided by the antibody/donor emission ([…]) and the average of duplicate measurement was used for calculations. Data plotting, analysis of binding, and curve fitting was done using Excel add-in XLfit version 5.5.0.5 (IDBS, Guildford, United Kingdom). […] “NT” means not tested.
# We used a LanthaScreen Europium (Eu) Kinase Binding Assay to determine the binding affinities (IC50) of compounds to Myt1 kinase. […] “NT” designates that the compound was not tested in this assay.
# [2] = target: T2, Wee1A kinase (CDK1 Tyr15 phosphorylation in ACHN renal cell carcinoma cells) (Homo sapiens, UniProt P30291); assay: High-content imaging of pCdk1 Y15, Wee1A kinase target engagement in ACHN cells; assay type: cell-based
# T2 construct: pCDK1 Tyr15 immunofluorescence read-out
# T2 sequence (P30291 whole entry): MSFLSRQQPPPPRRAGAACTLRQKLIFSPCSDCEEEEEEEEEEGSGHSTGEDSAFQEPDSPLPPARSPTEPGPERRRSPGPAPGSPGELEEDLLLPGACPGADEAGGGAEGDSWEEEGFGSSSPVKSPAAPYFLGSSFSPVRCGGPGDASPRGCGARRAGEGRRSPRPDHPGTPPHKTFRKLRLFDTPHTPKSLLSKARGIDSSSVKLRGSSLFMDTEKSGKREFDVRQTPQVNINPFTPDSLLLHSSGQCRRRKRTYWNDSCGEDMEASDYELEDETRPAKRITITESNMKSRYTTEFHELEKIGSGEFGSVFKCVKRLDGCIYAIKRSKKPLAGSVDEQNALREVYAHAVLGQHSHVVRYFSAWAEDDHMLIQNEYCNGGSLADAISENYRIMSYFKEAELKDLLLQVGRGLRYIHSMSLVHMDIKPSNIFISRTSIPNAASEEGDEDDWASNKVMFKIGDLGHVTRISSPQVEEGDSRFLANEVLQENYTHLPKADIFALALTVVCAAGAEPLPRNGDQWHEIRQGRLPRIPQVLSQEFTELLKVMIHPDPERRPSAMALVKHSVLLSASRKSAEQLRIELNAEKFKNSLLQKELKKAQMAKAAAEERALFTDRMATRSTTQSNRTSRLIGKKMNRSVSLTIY
# Experimental: Each of an ACHN renal cell carcinoma cell line (ATCC) and a DAOY medulloblastoma cell line, and an A427 lung cancer line were cultured in Minimum Essential Medium Eagle supplemented with 10% fetal calf serum (Sigma), 1% Penicillin-Streptomycin and 10 mM HEPES buffer (HyClone). Cell cultures were kept in a humidified incubator at 37 °C and 5% CO2. Cells were routinely tested for Mycoplasma contamination.
# For target engagement assessment of Wee1A kinase inhibition, high-content imaging of ACHN renal cell carcinoma cells was used for quantification of CDK1 phosphorylated on tyrosine 15 by immunofluorescence (“IF”). 20,000 cells per well were seeded in tissue culture treated 96 well plates and treated with compounds at concentrations ranging from 7 to 5,000 nM or from 0.3 to 200 nM for 4h. Cells were fixated for 15 minutes in 4% paraformaldehyde solution, washed in PBS and permeabilized using 0.2% Triton X-100. Blocking was performed for 1 h at RT using Blocker FL Fluorescent Blocking Buffer (Thermo Scientific), thereafter cells were incubated with primary antibody (rabbit anti-pCDK1 Y^15, #4539, Cell Signaling Technology) at 4 °C ON. Alexa Fluor Plus 647 labelled goat anti-rabbit (A32733, Thermo Scientific) was used as secondary antibody. After washing in PBS, nuclei were stained with DAPI solution for 10 min at RT, protected from light. Cells were imaged using an ImageXpress Pico automated imaging system and CellReporter Xpress software (Molecular Devices). The percentage of cells with nuclear positivity for pCdk1 Y^15 compared to DMSO control was determined for each well and drug dose response curves and EC50 values were calculated and visualized using GraphPad Prism. Target engagement for Wee1A kinase can also be measured using the same AlphaLISA assay in OVCAR3 cells, an ovarian cancer cell line. NIH:OVCAR-3 (OVCAR3) cells are cultured in RPMI-1640 medium supplemented with 0.01 mg/ml insulin, 20% FBS, 1% Penicillin-Streptomycin and 10 mM HEPES buffer. 14,000 cells per well are seeded into 96 well tissue culture plates in full medium. Twenty-four hours post seeding, cells are treated with compound for 4 hours at concentrations ranging from 0.017 nM to 1000 nM.
# [3] = target: T3, recombinant human Wee1A kinase (Homo sapiens, UniProt P30291); assay: Wee1A kinase binding assay (LanthaScreen Eu time-resolved FRET)
# T3 construct: full length Wee1 kinase was expressed by baculovirus in insect cells; purchased Invitrogen PV3817; host or cells: insect cells (baculovirus)
# T3 sequence (P30291 whole entry): as above
# Experimental: This time resolved-FRET binding assay was performed in white 384-well low volume plates (Greiner, cat #784075), at room temperature in kinase buffer A (KBA; Invitrogen cat #PV3189), consisting of 50 mM HEPES-NaOH (pH 7.5), 0.01% Brij-35, 10 mM MgCl2, and 1 mM EGTA. 5 μL of compound (diluted in reaction buffer, to 1% DMSO) were added to various wells in the plate, followed by 5 μL each of recombinant human Wee1A kinase (full length Wee1 kinase was expressed by baculovirus in insect cells using a N-terminal GST tag (MW: 99.1 kDa) (Invitrogen cat #PV3817) and LanthaScreen Eu-anti-GST antibody (Invitrogen, cat #PV5594). After this, 5 μL of kinase tracer 178 (Invitrogen, cat #PV5593) was added to the plate and the plate was incubated for 60 minutes at room temperature. The final assay conditions in each well were: 30 nM tracer 178, 5 nM Wee1A kinase and 2 nM Eu-labeled antibody in total assay volume of 15 μL. An Envision 2104 (Perkin-Elmer) Plate Reader with the following time-resolve fluorescence setting was used for performing LanthaScreen kinase binding assay. • Excitation 320 nm (30 nm bandpass) • Kinase Tracer Emission 665 nm (10 nm bandpass) • LanthaScreen Eu-anti-Tag Antibody Emission 615 nm (10 nm bandpass) • Dichroic Mirror Instrument dependent • Delay Time 100 μs • Integration Time 200 μs
# as §1
# [4] = Myt1 kinase Binding IC50, 3 nM tracer 178, 2.5 nM PMYT-1, 1 nM Eu-labeled antibody
# [5] = read-out: CDK1 Tyr15 Phosphorylation EC50, 4 h treatment, nuclear positivity for pCdk1 Y15 vs DMSO control
# [6] = 3 nM tracer 178, 2.5 nM PMYT-1, 1 nM Eu-labeled antibody, read-out: Myt1 kinase Binding IC50
# [7] = 4 h treatment, nuclear positivity for pCdk1 Y15 vs DMSO control, read-out: CDK1 Tyr15 Phosphorylation EC50
# [8] = 30 nM tracer 178, 5 nM Wee1A kinase, 2 nM Eu-labeled antibody, 60 minutes at room temperature, read-out: Wee1A kinase Binding IC50
Structure (SMILES),"pIC50 [1, 4]","pEC50 [2, 5]",pIC50 [3],"pIC50 [1, 6]","pEC50 [2, 7]","pIC50 [3, 8]"
"C=CCn1c(=O)c2cnc(Nc3cnn(C)c3)nc2n1-c1cccc(N(C)C2CCNCC2)n1 [Compound 182, 1-{6-[methyl(piperidin-4-yl)amino]pyridin-2-yl}-6-[(1-methyl-1H-pyrazol-4-yl)amino]-2-(prop-2-en-1-yl)-1H,2H,3H-pyrazolo[3,4-d]pyrimidin-3-one]",< 6.30,< 6.00,> 8.00,–,–,–
"C=CCn1c(=O)c2cnc(Nc3cncc(C#N)c3)nc2n1-c1cccc(OC2CCN(C)CC2)n1 [Compound 330, 5-[(1-{6-[(1-methylpiperidin-4-yl)oxy]pyridin-2-yl}-3-oxo-2-(prop-2-en-1-yl)-1H,2H,3H-pyrazolo[3,4-d]pyrimidin-6-yl)amino]pyridine-3-carbonitrile]",–,–,–,6.30 to 7.00,6.30 to 7.00,> 8.00
"C=CCn1c(=O)c2cnc(Nc3cncc(F)c3)nc2n1-c1cccc(OC2CCN(C)CC2)n1 [Compound 327, 2-allyl-6-(5-fluoro-3-pyridylamino)-1-[6-(1-methyl-4-piperidyloxy)-2-pyridyl]-1,2-dihydro-3H-1,2,5,7-tetraazainden-3-one]",–,–,–,7.00 to 7.70,6.30 to 7.00,> 8.00
"CCn1c(=O)c2cnc(Nc3ccc(Br)cc3)nc2n1-c1cccc(OC2CCNCC2)n1 [Compound 267, 6-(p-bromophenylamino)-2-ethyl-1-[6-(4-piperidyloxy)-2-pyridyl]-1,2-dihydro-3H-1,2,5,7-tetraazainden-3-one]",–,–,–,7.00 to 7.70,6.30 to 7.00,> 8.00
"C=CCn1c(=O)c2cnc(Nc3cccc(Br)c3)nc2n1-c1cccc(OC2CCN(C)CC2)n1 [Compound 269, 2-allyl-6-(m-bromophenylamino)-1-[6-(1-methyl-4-piperidyloxy)-2-pyridyl]-1,2-dihydro-3H-1,2,5,7-tetraazainden-3-one]",–,–,–,> 7.70,6.30 to 7.00,> 8.00
C=CCn1c(=O)c2cnc(Nc3ccc4c(cnn4C)c3)nc2n1-c1cccc(N[C@@H]2CCN(C)C2)n1 [Compound 115],–,–,–,7.00 to 7.70,> 7.00,> 8.00
"C=CCn1c(=O)c2cnc(Nc3ccccc3)nc2n1-c1cccc(NC2CCNCC2)n1 [Compound 123, 6-(phenylamino)-1-{6-[(piperidin-4-yl)amino]pyridin-2-yl}-2-(prop-2-en-1-yl)-1H,2H,3H-pyrazolo[3,4-d]pyrimidin-3-one]",–,–,–,6.30 to 7.00,6.00 to 6.30,> 8.00
"C=CCn1c(=O)c2cnc(Nc3ccc(F)cc3)nc2n1-c1cccc(NC2CCNCC2)n1 [Compound 125, 6-[(4-fluorophenyl)amino]-1-{6-[(piperidin-4-yl)amino]pyridin-2-yl}-2-(prop-2-en-1-yl)-1H,2H,3H-pyrazolo[3,4-d]pyrimidin-3-one]",–,–,–,6.30 to 7.00,6.00 to 6.30,> 8.00
"C=CCn1c(=O)c2cnc(Nc3cccc(C)c3)nc2n1-c1cccc(NC2CCNCC2)n1 [Compound 126, 2-allyl-1-[6-(4-piperidylamino)-2-pyridyl]-6-m-toluidino-1,2-dihydro-3H-1,2,5,7-tetraazainden-3-one]",–,–,–,< 6.30,6.30 to 7.00,> 8.00
"C=CCn1c(=O)c2cnc(Nc3ccc4ncnn4c3)nc2n1-c1cccc(OC2CCNCC2)n1 [Compound 245, 2-allyl-6-(1,3,3a-triaza-5-indenylamino)-1-[6-(4-piperidyloxy)-2-pyridyl]-1,2-dihydro-3H-1,2,5,7-tetraazainden-3-one]",–,–,–,7.00 to 7.70,< 6.00,> 8.00

# Now from value to molecule:
"pIC50 [1, 4]","pEC50 [2, 5]",pIC50 [3],"pIC50 [1, 6]","pEC50 [2, 7]","pIC50 [3, 8]",Structure (SMILES)
–,–,–,6.30 to 7.00,6.00 to 6.30,> 8.00,"C=CCn1c(=O)c2cnc(Nc3ccc(Cl)cc3)nc2n1-c1cccc(O[C@@H]2CCCN(C)C2)n1 [Compound 187, 1-{6-[(R)-1-methyl-3-piperidyloxy]-2-pyridyl}-2-allyl-6-(p-chlorophenylamino)-1,2-dihydro-3H-1,2,5,7-tetraazainden-3-one]"
–,–,–,6.30 to 7.00,6.30 to 7.00,> 8.00,"C=CCn1c(=O)c2cnc(Nc3ccc(OCC(F)(F)F)c(C)c3)nc2n1-c1cccc(NC2CCNCC2)n1 [Compound 178, 2-allyl-1-[6-(4-piperidylamino)-2-pyridyl]-6-[4-(2,2,2-trifluoroethoxy)-3-toluidino]-1,2-dihydro-3H-1,2,5,7-tetraazainden-3-one]"
< 6.30,6.30 to 7.00,> 8.00,–,–,–,"C=CCn1c(=O)c2cnc(Nc3cnn(CCC)c3)nc2n1-c1cccc(N(C)C2CCN(C)CC2)n1 [Compound 177, 1-{6-[N-methyl(1-methyl-4-piperidyl)amino]-2-pyridyl}-2-allyl-6-(1-propyl-4-pyrazolylamino)-1,2-dihydro-3H-1,2,5,7-tetraazainden-3-one]"
–,–,–,< 6.30,6.30 to 7.00,> 8.00,"C=CCn1c(=O)c2cnc(Nc3cnn(C(C)C)c3)nc2n1-c1cccc(OC2CC3CCCC(C2)N3C)n1 (stereo not drawn) [Compound 193, 2-allyl-6-(1-isopropyl-4-pyrazolylamino)-1-{6-(9-methyl-9-azabicyclo[3.3.1]non-3-yloxy)-2-pyridyl}-1,2-dihydro-3H-1,2,5,7-tetraazainden-3-one]"
–,–,–,7.00 to 7.70,6.30 to 7.00,> 8.00,"Cc1cc(Nc2ncc3c(=O)n(C)n(-c4cccc(OC5CCN(C)CC5)n4)c3n2)ccc1F [Compound 152, 6-(4-fluoro-3-toluidino)-2-methyl-1-[6-(1-methyl-4-piperidyloxy)-2-pyridyl]-1,2-dihydro-3H-1,2,5,7-tetraazainden-3-one]"
–,–,–,7.00 to 7.70,6.30 to 7.00,> 8.00,"C=CCn1c(=O)c2cnc(Nc3cccc(-n4cccn4)c3)nc2n1-c1cccc(OC2CCNCC2)n1 [Compound 363, 2-allyl-1-[6-(4-piperidyloxy)-2-pyridyl]-6-[m-(1-pyrazolyl)phenylamino]-1,2-dihydro-3H-1,2,5,7-tetraazainden-3-one]"
